# Columns and labels:
# [1] = molecular target: norepinephrine reuptake (NE) (Homo sapiens, UniProt P23975); assay: norepinephrine reuptake inhibition; format: biochemical; conditions: unbalanced triple reuptake inhibitor; compared with DA and 5-HT reuptake
# dopamine reuptake (DA) = dopamine reuptake (DA) (Homo sapiens, UniProt Q01959); assay: dopamine reuptake inhibition; format: biochemical; conditions: fraction of the potency towards NE reuptake
# [2] = molecular target: serotonin reuptake (5-HT) (Homo sapiens, UniProt P31645); assay: serotonin reuptake inhibition; format: biochemical; conditions: fraction of the potency towards NE reuptake
# serotonin reuptake (5-HT), sequence (P31645 whole entry): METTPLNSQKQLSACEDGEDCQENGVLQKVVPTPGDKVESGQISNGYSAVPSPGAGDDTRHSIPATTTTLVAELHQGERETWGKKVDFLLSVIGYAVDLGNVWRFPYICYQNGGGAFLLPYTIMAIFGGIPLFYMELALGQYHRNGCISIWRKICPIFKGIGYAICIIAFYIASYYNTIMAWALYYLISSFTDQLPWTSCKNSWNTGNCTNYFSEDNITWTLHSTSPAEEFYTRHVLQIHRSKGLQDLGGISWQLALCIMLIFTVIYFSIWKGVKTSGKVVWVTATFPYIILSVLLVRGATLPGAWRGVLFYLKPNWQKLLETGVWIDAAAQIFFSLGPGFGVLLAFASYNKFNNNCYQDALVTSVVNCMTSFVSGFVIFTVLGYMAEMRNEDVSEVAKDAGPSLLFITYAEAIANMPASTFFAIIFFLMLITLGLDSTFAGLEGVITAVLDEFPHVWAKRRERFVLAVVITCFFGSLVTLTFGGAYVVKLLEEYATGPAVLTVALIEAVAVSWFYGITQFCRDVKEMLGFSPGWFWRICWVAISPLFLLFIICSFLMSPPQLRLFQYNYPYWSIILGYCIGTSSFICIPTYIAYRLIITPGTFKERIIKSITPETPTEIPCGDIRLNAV
# [3] = molecular target: T1, monoamine oxidase A (MAO A) (Homo sapiens, UniProt P21397); assay: metabolic pathway
# T1 sequence (P21397 1-527): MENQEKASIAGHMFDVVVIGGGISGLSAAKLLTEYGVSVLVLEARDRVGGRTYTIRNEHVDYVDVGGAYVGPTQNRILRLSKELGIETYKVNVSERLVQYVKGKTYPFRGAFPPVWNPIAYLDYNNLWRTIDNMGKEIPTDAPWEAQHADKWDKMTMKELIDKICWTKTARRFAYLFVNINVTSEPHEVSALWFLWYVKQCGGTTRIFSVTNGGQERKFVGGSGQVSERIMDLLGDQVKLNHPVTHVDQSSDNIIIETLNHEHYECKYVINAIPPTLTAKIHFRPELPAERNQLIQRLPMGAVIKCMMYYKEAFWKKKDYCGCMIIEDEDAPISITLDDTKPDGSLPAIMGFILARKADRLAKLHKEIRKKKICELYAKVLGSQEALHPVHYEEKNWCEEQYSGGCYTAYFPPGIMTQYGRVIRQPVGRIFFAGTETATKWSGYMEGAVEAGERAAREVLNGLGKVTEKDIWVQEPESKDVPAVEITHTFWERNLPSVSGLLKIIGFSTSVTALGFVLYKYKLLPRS
# individuals with FXS = conditions: reported trials; failures due to aggravation of irritable, moody/perseverative and aggressive behaviors; cited from earlier work
# norepinephrine reuptake (NE), sequence (P23975 whole entry): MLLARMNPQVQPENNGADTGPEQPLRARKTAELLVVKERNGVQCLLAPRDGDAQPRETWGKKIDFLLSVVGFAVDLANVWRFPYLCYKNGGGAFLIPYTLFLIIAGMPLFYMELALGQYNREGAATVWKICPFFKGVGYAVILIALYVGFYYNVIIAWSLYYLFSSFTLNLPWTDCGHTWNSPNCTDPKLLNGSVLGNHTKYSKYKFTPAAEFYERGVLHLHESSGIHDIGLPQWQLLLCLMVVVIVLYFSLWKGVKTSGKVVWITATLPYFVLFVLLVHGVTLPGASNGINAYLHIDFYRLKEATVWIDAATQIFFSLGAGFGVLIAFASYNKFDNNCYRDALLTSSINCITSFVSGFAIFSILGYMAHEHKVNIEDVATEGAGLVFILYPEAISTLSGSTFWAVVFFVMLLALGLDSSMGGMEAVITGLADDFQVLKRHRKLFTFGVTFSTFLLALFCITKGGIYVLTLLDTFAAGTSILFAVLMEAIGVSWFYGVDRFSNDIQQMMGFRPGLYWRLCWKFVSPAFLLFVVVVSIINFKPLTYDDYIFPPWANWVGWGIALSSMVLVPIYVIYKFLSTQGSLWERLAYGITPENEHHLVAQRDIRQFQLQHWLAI
# dopamine reuptake (DA), sequence (Q01959 whole entry): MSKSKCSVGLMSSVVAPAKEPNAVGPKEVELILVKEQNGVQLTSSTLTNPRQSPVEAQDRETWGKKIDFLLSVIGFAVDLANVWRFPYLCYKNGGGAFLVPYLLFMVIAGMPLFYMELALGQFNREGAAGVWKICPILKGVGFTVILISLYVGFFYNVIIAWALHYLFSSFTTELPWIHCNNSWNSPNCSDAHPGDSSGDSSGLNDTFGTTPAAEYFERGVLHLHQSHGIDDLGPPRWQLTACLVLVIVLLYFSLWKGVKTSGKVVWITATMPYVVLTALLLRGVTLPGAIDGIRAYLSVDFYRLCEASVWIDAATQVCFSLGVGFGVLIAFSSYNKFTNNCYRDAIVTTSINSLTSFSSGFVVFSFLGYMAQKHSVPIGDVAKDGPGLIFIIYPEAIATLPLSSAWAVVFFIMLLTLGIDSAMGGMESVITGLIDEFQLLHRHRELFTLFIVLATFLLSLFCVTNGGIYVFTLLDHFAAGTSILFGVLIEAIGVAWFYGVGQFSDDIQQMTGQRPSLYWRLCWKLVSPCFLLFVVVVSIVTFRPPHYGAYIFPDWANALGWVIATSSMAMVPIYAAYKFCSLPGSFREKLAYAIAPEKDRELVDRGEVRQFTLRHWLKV
SMILES,relative potency towards norepinephrine reuptake [1],potency towards dopamine reuptake relative to norepinephrine reuptake (dopamine reuptake (DA)),potency towards serotonin reuptake relative to norepinephrine reuptake [2],primary route of metabolism [3],outcome of treatment in individuals with FXS (individuals with FXS)
"c1ccc2cc([C@]34CNC[C@H]3C4)ccc2c1 [(1R,5S)-1-(naphthalen-2-yl)-3-azabicyclo[3.1.0]hexane]",most potency,one-sixth,one-fourteenth,primarily metabolized by monoamine oxidase A (MAO A),
O=C1CCc2ccc(OCCCCN3CCN(c4cccc(Cl)c4Cl)CC3)cc2N1 [Aripiprazole],,,,,some individuals with FXS failed treatment
CNCC[C@@H](Oc1ccccc1C)c1ccccc1 [atomoxetine],,,,,unsuccessful

# — patent US9839627B2, “Methods of treating fragile X associated disorders, ADHD, and autism spectrum disorder” (Neurovance, Inc., priority 2013, dated 2017)
